Patent US12128131B2, “Treatment of epithelial cysts by intracystic injection of antineoplastic particles” (CRITITECH, INC., priority 2017, dated 2024)

Assay: Solubility in the Receptor Fluid (60/40 methanol/water, pH 4)
Assay type: physicochemical
Conditions: 60 vol. %/40 vol % methanol/water at pH 4 with 0.01 wt % NaN3
Method: Receptor Fluid: The receptor fluid consisted of 60 vol. %/40 vol % methanol/water at pH 4 with 0.01 wt % NaN3 (added as a preservative). […] After mixing and degassing the Receptor Fluid it was filtered through a ZapCap CR 0.2 μm membrane under vacuum; the Receptor Fluid, so filtered, was stirred for an additional 20 minutes under vacuum.

In the case of `CC(=O)O[C@@]12CO[C@@H]1C[C@H](O)[C@@]1(C)C(=O)[C@H](O)C3=C(C)[C@@H](OC(=O)[C@H](O)[C@@H](NC(=O)OC(C)(C)C)c4ccccc4)C[C@@](O)([C@@H](OC(=O)c4ccccc4)[C@H]21)C3(C)C` [Docetaxel Raw Material, docetaxel], the “solubility in the Receptor Fluid” value is reported as “sufficient to maintain sink conditions”.
